Like-named read-outs stand apart in the source and are kept apart here.
Target: T1, CFTR (Homo sapiens, UniProt P13569, DEL508-508)
T1 construct: endogenous in cells; host or cells: primary human bronchial epithelial cells from CF subjects (F508del/MF-HBE), differentiated at air-liquid interface
Experiment: HBE assay: Ussing chamber assay of CFTR-mediated short-circuit currents
Assay type: cell-based
Conditions: for EC50: read-out: HBE EC50
Summary of the method: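 CFTR-mediated Isc (μA/cm²) equals the peak response to apical 20 μM forskolin minus the residual after a 20 μM each BPO/GlyH-101/CFTR inhibitor 172 cocktail, recorded in Ussing chambers at Vhold 0 mV, 37 °C, pH 7.4, with 30 μM apical amiloride. Cells were F508del/MF HBE cultures preincubated 18-24 h with corrector (concentration range or 10 μM) plus 1 μM ivacaftor in 20% human serum.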

[1] = Table 10, read-out: HBE activity at 10 (μM) (%)
[2] = Table 10, read-out: HBE Max activity (%)
[3] = Table 13, read-out: HBE Max Activity (%)
[4] = Table 12, read-out: HBE Max Activity (%)

T1 sequence (P13569 with tags, fused parts or gaps DEL508-508): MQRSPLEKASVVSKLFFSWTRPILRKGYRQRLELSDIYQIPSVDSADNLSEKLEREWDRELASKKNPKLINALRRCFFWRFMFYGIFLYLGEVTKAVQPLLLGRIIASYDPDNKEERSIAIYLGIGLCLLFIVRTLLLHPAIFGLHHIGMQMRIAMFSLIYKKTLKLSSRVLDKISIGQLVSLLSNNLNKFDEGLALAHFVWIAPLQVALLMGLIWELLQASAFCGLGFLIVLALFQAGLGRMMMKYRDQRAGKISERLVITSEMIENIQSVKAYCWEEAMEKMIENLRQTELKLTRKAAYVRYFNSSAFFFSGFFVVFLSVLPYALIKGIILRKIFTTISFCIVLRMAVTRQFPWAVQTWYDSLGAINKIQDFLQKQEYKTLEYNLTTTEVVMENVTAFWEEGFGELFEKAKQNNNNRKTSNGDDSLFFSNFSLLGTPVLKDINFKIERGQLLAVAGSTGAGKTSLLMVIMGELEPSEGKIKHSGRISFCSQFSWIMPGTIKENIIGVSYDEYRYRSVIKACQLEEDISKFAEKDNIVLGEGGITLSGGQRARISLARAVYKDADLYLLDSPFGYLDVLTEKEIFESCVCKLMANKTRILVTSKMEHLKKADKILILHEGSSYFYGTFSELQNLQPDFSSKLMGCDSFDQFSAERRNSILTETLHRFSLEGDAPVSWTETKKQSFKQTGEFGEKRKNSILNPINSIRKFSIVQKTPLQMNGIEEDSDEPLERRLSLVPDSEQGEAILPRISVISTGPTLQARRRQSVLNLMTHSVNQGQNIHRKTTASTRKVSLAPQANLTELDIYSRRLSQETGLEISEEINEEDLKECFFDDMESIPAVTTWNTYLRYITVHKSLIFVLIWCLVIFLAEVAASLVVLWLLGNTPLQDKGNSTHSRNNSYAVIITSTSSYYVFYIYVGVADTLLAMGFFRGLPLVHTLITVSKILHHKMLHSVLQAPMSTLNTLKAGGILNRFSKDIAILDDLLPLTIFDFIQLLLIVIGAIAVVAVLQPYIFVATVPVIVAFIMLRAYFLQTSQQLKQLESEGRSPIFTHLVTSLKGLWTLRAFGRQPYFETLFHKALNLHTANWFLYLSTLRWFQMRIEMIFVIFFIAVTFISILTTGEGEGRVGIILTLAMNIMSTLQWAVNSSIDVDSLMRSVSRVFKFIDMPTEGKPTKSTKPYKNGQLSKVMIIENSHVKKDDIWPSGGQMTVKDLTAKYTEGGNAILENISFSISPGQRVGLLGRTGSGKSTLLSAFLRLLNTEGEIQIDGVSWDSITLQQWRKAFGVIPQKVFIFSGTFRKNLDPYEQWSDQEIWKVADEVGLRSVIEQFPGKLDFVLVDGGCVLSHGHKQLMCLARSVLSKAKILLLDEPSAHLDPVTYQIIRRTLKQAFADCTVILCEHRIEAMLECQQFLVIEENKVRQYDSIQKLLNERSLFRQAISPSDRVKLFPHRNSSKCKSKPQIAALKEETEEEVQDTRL

Cc1cccc(C)c1-c1cc2nc(n1)NS(=O)(=O)c1cccc(c1)C(=O)N(Cc1cn(C)nc1C)[C@H](CC(C)(C)C)CO2 [Compound 822]
activation at 10 µM [1]: > 60%

Cc1cccc(C)c1-c1cc2nc(n1)NS(=O)(=O)c1cccc(c1)C(=O)N(Cc1cnn(C(C)C)c1)[C@H](CC(C)(C)C)CO2 [Compound 823]
activation at 10 µM [1]: > 60% | Emax [2]: > 60%

Cc1cccc(C)c1-c1cc2nc(n1)NS(=O)(=O)c1cccc(c1)C(=O)N(Cc1cnn(C)c1C)[C@H](CC(C)(C)C)CO2 [Compound 824]
activation at 10 µM [1]: > 60%

Cc1cccc(C)c1-c1cc2nc(n1)NS(=O)(=O)c1cccc(c1)C(=O)N(Cc1ccn(C)n1)[C@H](CC(C)(C)C)CO2 [Compound 825]
activation at 10 µM [1]: > 60%

Cc1cccc(C)c1-c1cc2nc(n1)NS(=O)(=O)c1cccc(c1)C(=O)N(Cc1cnn(C)c1)[C@H](CC(C)(C)C)CO2 [Compound 826]
activation at 10 µM [1]: > 60%

Cc1cccc(C)c1-c1cc2nc(n1)NS(=O)(=O)c1cccc(c1)C(=O)N(Cc1ccnn1C)[C@H](CC(C)(C)C)CO2 [Compound 827]
activation at 10 µM [1]: > 60%

Cc1cccc(C)c1-c1cc2nc(n1)NS(=O)(=O)c1cccc(c1)C(=O)N(Cc1cc(C)n(C)n1)[C@H](CC(C)(C)C)CO2 [Compound 828]
activation at 10 µM [1]: > 60%

CC(C)c1cccc(C(C)C)c1-c1cc2nc(n1)NS(=O)(=O)c1cccc(c1)C(=O)N(Cc1ccc(N3CCCCC3)cn1)[C@H](CC(C)(C)C)CO2 [Compound 829]
activation at 10 µM [1]: > 60%

CC(C)c1cccc(C(C)C)c1-c1cc2nc(n1)NS(=O)(=O)c1cccc(c1)C(=O)N(Cc1ncc(N3CCOCC3)cn1)[C@H](CC(C)(C)C)CO2 [Compound 830]
Emax [2]: > 60%

CC(C)c1cccc(C(C)C)c1-c1cc2nc(n1)NS(=O)(=O)c1cccc(c1)C(=O)N(Cc1ccc(N3CCOCC3)cn1)[C@H](CC(C)(C)C)CO2 [Compound 831]
Emax [2]: > 60%

Cc1cccc(C)c1-c1cc2nc(n1)NS(=O)(=O)c1cccc(c1)C(=O)N(CC1CCCCC1)[C@H](CC(C)(C)C)CO2 [Compound 832]
activation at 10 µM [1]: > 60%

Cc1cccc(C)c1-c1cc2nc(n1)NS(=O)(=O)c1cccc(c1)C(=O)N(CC1CCCCO1)[C@H](CC(C)(C)C)CO2 (stereo partly shown) [Compound 833]
Emax [2]: > 60%

Cc1cccc(C)c1-c1cc2nc(n1)NS(=O)(=O)c1cccc(c1)C(=O)N(CC1CCCO1)[C@H](CC(C)(C)C)CO2 (stereo partly shown) [Compound 835]
EC50 (Table 10): < 1000 nM | Emax [2]: > 60%

Cc1cccc(C)c1-c1nc2nc(c1C)OC[C@@H](CC(C)(C)C)N(CC1CCCO1)C(=O)c1cccc(c1)S(=O)(=O)N2 (stereo partly shown) [Compound 836]
Emax [2]: > 60%

Cc1cccc(C)c1-c1cc2nc(n1)NS(=O)(=O)c1cccc(c1)C(=O)N(Cc1ncc(N3CC4(CCOCC4)C3)cn1)[C@H](CC(C)(C)C)CO2 [Compound 866]
EC50 (Table 13): < 1000 nM | Emax [3]: > 60%

Cc1cccc(C)c1-c1cc2nc(n1)NS(=O)(=O)c1cccc(c1)C(=O)N(Cc1ncc(N3CC4(COC4)C3)cn1)[C@H](CC(C)(C)C)CO2 [Compound 867]
EC50 (Table 13): < 1000 nM | Emax [3]: > 60%

COC1CC2(C1)CN(c1cnc(CN3C(=O)c4cccc(c4)S(=O)(=O)Nc4nc(cc(-c5c(C)cccc5C)n4)OC[C@H]3CC(C)(C)C)nc1)C2 [Compound 868]
EC50 (Table 13): < 1000 nM | Emax [3]: > 60%

Cc1cccc(C)c1-c1cc2nc(n1)NS(=O)(=O)c1cccc(c1)C(=O)N(Cc1ncc(N3CC4(C3)CC(C)(C)C4)cn1)[C@H](CC(C)(C)C)CO2 [Compound 869]
EC50 (Table 13): < 1000 nM | Emax [3]: > 60%

COC1(C)CCN(c2cnc(CN3C(=O)c4cccc(c4)S(=O)(=O)Nc4nc(cc(-c5c(C)cccc5C)n4)OC[C@H]3CC(C)(C)C)nc2)CC1 [Compound 870]
activation at 10 µM (Table 13, read-out: HBE Activity at 10 μM (%)): > 600% | EC50 (Table 13): < 1000 nM | Emax [3]: > 60%

Cc1cccc(C)c1-c1cc2nc(n1)NS(=O)(=O)c1cccc(c1)C(=O)N(Cc1cccc(C(C)C(C)C)n1)[C@H](CC(C)(C)C)CO2 (stereo partly shown) [Compound 871]
EC50 (Table 12): < 1000 nM | Emax [4]: > 60%

Cc1cccc(C)c1-c1cc2nc(n1)NS(=O)(=O)c1cccc(c1)C(=O)N(Cc1cccc(N3CCOC(C)(C)C3)n1)[C@H](CC(C)(C)C)CO2 [Compound 872]
EC50 (Table 12): < 1000 nM | Emax [4]: > 60%
